Laboratory results published in article PMC6445166, “Subnanomolar indazole-5-carboxamide inhibitors of monoamine oxidase B (MAO-B) continued: indications of iron binding, experimental evidence for optimised solubility and brain penetration” (Journal of Enzyme Inhibition and Medicinal Chemistry, 2017).
Values joined by “and” are separate entries in the source; they are usually repeats but may differ in a detail not shown here. Equal values may be shown once. Read-outs that look alike come from different tables or passages of the source.

How the values were obtained:
[1] = Chemical stability in phosphate buffer; type: physicochemical; settings: chemical stability in 10 mM phosphate buffer at pH 7.4; 60 days at room temperature
Method: The purity and solubility of the compounds was determined by an analytical HPLC-UV method using an LC-MS instrument (Applied Biosystems API 2000 LC/ESI-MS; HPLC Agilent 1100 binary pump system) coupled with a diode array detector (DAD) with an UV absorption in the range from 220 to 400 nm. Mass spectra were recorded on an API 2000 mass spectrometer equipped with an electrospray ion source (ESI) by using triple ion quadrupole (TIC) with an alternating full scan detection in positive (+Q) and/or negative (-Q) mode. As mobile phases for the different analytical LC methods were used methanol (Sigma-Aldrich, Chromasolv LC-MS grade), ammonium acetate (2.0 mM) and water Purelab flex.
500 µL of a 10 mM compound stock solution in DMSO, ACN or MeOH was added to a 2.0 mL HPLC glass vial containing 500 µL phosphate buffer (10 mM, pH 7.4) and sonicated for 60 sec. The sample was shaken at 37 °C for 2 hours and then left for 60 days at room temperature under light exposure. The chemical stability of compounds was checked by UV-visible spectroscopy (Figure S1).

[2] = target: T1, human recombinant MAO-A (Homo sapiens, UniProt P21397); type: biochemical
T1 construct: purchased Sigma-Aldrich M7316; host or cells: baculovirus-infected BTI-TN-5B1-4 insect cells (microsomes)
T1 sequence (P21397 1-527): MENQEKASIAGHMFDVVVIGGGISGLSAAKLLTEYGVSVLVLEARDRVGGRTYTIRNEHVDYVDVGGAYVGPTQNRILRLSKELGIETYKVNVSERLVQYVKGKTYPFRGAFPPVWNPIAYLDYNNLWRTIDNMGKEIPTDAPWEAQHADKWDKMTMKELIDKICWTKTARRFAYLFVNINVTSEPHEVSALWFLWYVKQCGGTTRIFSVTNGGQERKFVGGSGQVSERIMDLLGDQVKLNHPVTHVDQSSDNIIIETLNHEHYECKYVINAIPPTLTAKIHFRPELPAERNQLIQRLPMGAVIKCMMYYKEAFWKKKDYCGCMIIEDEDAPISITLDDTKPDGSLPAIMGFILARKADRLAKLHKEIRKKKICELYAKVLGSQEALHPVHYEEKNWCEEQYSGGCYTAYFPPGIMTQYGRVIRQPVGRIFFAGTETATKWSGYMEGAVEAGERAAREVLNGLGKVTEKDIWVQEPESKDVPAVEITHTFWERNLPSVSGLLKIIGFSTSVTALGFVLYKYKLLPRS

[3] = target: T2, hMAO-B (Homo sapiens, UniProt P27338); settings: at IC80: NTZ compounds 1.0 nM, selegiline 30 nM, safinamide 50 nM; p-tyramine raised to 1.0 mM after 22 min
T2 sequence (P27338 1-520): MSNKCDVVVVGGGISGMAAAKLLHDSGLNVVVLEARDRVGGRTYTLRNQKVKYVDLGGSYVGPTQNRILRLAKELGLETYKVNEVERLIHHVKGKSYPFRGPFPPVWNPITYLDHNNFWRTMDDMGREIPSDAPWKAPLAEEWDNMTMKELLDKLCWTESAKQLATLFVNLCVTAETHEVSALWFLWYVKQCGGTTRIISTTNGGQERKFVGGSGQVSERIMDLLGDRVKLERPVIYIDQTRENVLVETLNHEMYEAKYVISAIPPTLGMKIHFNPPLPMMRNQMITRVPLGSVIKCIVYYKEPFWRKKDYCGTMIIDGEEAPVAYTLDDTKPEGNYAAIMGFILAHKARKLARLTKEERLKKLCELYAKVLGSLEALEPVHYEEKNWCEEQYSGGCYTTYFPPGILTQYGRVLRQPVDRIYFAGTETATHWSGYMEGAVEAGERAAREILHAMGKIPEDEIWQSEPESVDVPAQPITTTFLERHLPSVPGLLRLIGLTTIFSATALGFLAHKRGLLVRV
Method: (§1) final concentration) MAO-B inhibitors were used as references. Indazole-based compounds (1.0 nM final
(§2) concentration) as well as reference inhibitors were studied at their IC80 values without pre-incubation of
(§3) the hMAO-B enzyme/inhibitor mixtures. Control experiments without inhibitors were run for each
(§4) compound. The enzyme reaction was started by adding 10 µM of the substrate p-tyramine and the
enzymatic activity of the tested compounds was measured for 22 min. Then, the substrate concentration
fluorescence measurements for 5 h.
The measurements were conducted
(§5) in duplicate using the same hMAO-B assay conditions as described for the determination of IC50 values.

[4] = Octanol-water distribution coefficient (logD); settings: for logD7.4: measured, pH 7.4 in 60 mM phosphate buffer at rt
[5] = Solubility studies (HPLC-UV/ESI-MS; kinetic solubility); type: physicochemical; settings: measured, solubility in mol/L at pH 7.4 in 60 mM phosphate buffer or pure water at rt; for solubility: 60 mM phosphate buffer or pure water, pH 7.4, aqueous buffer, read-out: logS7.4
[6] = as above; type: physicochemical; settings: thermodynamic from solid
Method: Solid […]
samples of compounds (2–4 mg) were weighed and serial diluted in 1.0 mL either of water (Purelab flex) or water-methanol (1:1). A precisely weighed sample of the respective compound in methanol (1.0 ± 0.05 mg/mL) was used as a reference. A blank solution without detectable analyte was used for instrument calibration for each experiment. The suspensions were mixed on a vortex for 5 min, sonicated for 1 h, and then shaken over night at rt. After that, the samples were left for 1 h at rt and then filtered through a 0.45 µm filter. Aliquots (10 µL) of each sample were injected into the HPLC/ESI-MS system (Applied
(1 picture or pasted object on this page, not shown here)
Biosystems API 2000 ESI-MS, HPLC Agilent 1100 binary pump system) equipped with a Phenomenex Luna C18 reverse phase column and subsequently measured by chromatographic procedure (DAD detection) with mass conformation (MS scan in positive and negative mode). The mass scan method was adapted for each tested compound depending on its limit of detection (LOD) and physicochemical properties (Table S1, Figure S2). The solubility of the compounds was calculated by Analyst software v.
1.5.1 (AB Sciex Pte. Ltd.) using one point calibration after subtraction the absorbance of the blank solution from the total analyte peak area measured for each sample in the experiments. To verify the results, an equimolar mixture (each in a concentration equal to 1.0 mg/mL) of the compounds in methanol was prepared and measured under the same conditions as described above (see Figure 4A). All experiments were performed in triplicate with at least three analytical runs for each sample.
The solubility data for tested compounds, obtained from the different analytical techniques, are […]
Table S1. Solubility data for selected compounds.
Compd. Methoda Solubility in 50% methanolb Solubility in waterb […]
a Method of detection: HPLC-UV method 1 (DAD), HPLC/ESI-MS method 2 (+Q/–Q scan: +MI+H+/– MI–H–). b The values are the mean ± SD (n ≥ 3).

[7] = target: T2, hMAO-B; assay: MAO-B kinetic experiments (Lineweaver-Burk); type: biochemical; set-up: purchased Sigma-Aldrich M7441; host or cells: baculovirus-infected BTI-TN-5B1-4 insect cells (microsomes); settings: 0.5 and 1.0 nM inhibitor, varied p-tyramine
Method: as §1, §2, §3, §4
enzymatic activity of the tested compounds was measured for 22 min.
The catalytic rates of hMAO-B were measured at different
The measurements were conducted
as §5

[8] = PAMPA-BBB permeability assay; settings: for PAMPA-BBB −logPe: 4 h under stirring, Prisma HT buffer; for CNS+/– Prediction: from PAMPA-BBB permeability, limit for BBB permeation Pe > 4.0 × 10^−6 cm/s
Method: (§6) Measurements were performed at room temperature with incubation for 4 h under stirring.
(§7) Parallel Artificial Membrane Permeability Assay (PAMPA)
(§8) Determination of blood-brain barrier (BBB) permeability was performed using the PAMPA Explorer kit
(§9) (Pion, Inc.). Stock solutions of tested and standard compounds were prepared in DMSO (10 mM and 50
(§10) The corresponding stock solutions were diluted to a final
(§11) concentration of 10 µM and 50 µM (5.0 µL/well, 1% v/v final DMSO concentration) with pH 7.4 Prisma
(§12) HT buffer solution in deionized water (Pion) using a deep-well plate. The first row of this plate was filled
(§13) with DMSO. For the preparation of pH-dependent PAMPA experiments, the pH of Prisma solution was
(§14) adjusted to pH 3.0 or 6.2 by adding aliquots of 0.5 M NaOH. The resulting solution (200 µL) was added
(§15) to each well of the donor plate (n = 6).
(§16) the acceptor plate was coated with 5 µL/well of the GIT-0 lipid (Pion) formulation and placed on the top
(§17) of the donor plate to form a “sandwich” plate. Then, 200 µL of brain sink buffer (BSB, Pion) was added
(§18) to each well of the acceptor plate. The “sandwich” plate was incubated in a Good-Box (Pion) at 37 °C for
(§19) 4 h with stirring at 60 (ABL t.u.). After that, 150 µL/well of each well of the “sandwich” plates were
(§20) transferred into the corresponding UV read acceptor and donor plates. A blank UV read 96-well plate with
(§21) 150 µL/well of each buffer solution was prepared. An Epoch microplate reader was used to obtain the
(§22) UV-vis spectra (250–500 nm) of the solutions in the blank, acceptor, and donor plates. The Pe and –logPe
(§23) values for each compound were processed using the PAMPA Explorer software v.3.8 (Pion).

[9] = PAMPA-BBB standard drugs; cited from earlier work
[10] = PAMPA
Method: as §6, §7, §8, §9, §10, §11, §12, §13, §14, §15, §16, §17, §18, §19, §20, §21, §22, §23

[11] = pure water (Purelab flex), water, method 1: HPLC-UV (DAD), read-out: Solubility in water Sw
[12] = pure water (Purelab flex), water, method 1: HPLC-UV (DAD), read-out: Solubility in water logSw
[13] = pure water (Purelab flex), water, method 2: HPLC/ESI-MS, read-out: Solubility in water logSw
[14] = pure water (Purelab flex), water, pure water, mean ± SD (n ≥ 3), read-out: Solubility in water
[15] = water-methanol (1:1), aqueous with cosolvent or surfactant or cyclodextrin, mean ± SD (n ≥ 3), read-out: Solubility in 50% methanol
[16] = water-methanol (1:1), aqueous with cosolvent or surfactant or cyclodextrin, method 1: HPLC-UV (DAD), read-out: Solubility in 50% methanol S
[17] = water-methanol (1:1), aqueous with cosolvent or surfactant or cyclodextrin, method 1: HPLC-UV (DAD), read-out: Solubility in 50% methanol logS
[18] = water-methanol (1:1), aqueous with cosolvent or surfactant or cyclodextrin, method 2: HPLC/ESI-MS, read-out: Solubility in 50% methanol logS
[19] = pure water (Purelab flex), water, method 2: HPLC/ESI-MS, read-out: Solubility in water Sw
[20] = water-methanol (1:1), aqueous with cosolvent or surfactant or cyclodextrin, method 2: HPLC/ESI-MS, read-out: Solubility in 50% methanol S
[21] = PAMPA-BBB validation with standard drugs

O=C(Nc1ccc(Cl)c(Cl)c1)c1ccc2[nH]ncc2c1 [NTZ-1006]
Stability [1]: Stable | IC50 [2]: > 10 µM | mode of interaction with hMAO-B (reversible or irreversible) [3]: reversible inhibitors of hMAO-B

O=C(Nc1ccc(F)c(Cl)c1)c1ccc2[nH]ncc2c1 [NTZ-1032]
Stability [1]: Stable

O=C(Nc1ccc(F)c(F)c1)c1ccc2[nH]ncc2c1 [NTZ-1034]
Stability [1]: Stable | logD7.4 [4]: 2.04 | logS7.4 [5]: −4.22

Cn1ncc2cc(C(=O)Nc3ccc(Cl)c(Cl)c3)ccc21 [NTZ-1091]
Stability [1]: Stable | solubility [6, 11]: 0.75 µg/mL and 2.36 µM | solubility [6, 12]: 2.34 µM | solubility [6, 13]: 17.8 µM | solubility [6, 14]: 5.62 µg/mL and 17.6 µM | solubility [6, 15]: 156 µg/mL and 490 µM | solubility [6, 16]: 105 µg/mL and 300 µM | solubility [6, 17]: 331 µM | solubility [6, 18]: 447 µM | type of hMAO-B inhibition (Lineweaver–Burk) [7]: linear and intersected at the Y-axis | PAMPA-BBB −logPe [8]: 3.91 | Papp at 4 h, 10 µM ([8]; PAMPA, pH 7.4): 118 ± 6.4 ×10⁻⁶ cm/s | mode of interaction with hMAO-B (reversible or irreversible) [3]: reversible inhibitors of hMAO-B | logS7.4 [5]: −4.75

Cn1ncc2cc(C(=O)Nc3ccc(F)c(Cl)c3)ccc21 [NTZ-1441]
Stability [1]: Stable | solubility [6, 11]: 10.6 µg/mL and 34.9 µM | solubility [6, 12]: 34.7 µM | solubility [6, 19]: 136 ± 5.16 µM | solubility [6, 13]: 135 µM | solubility [6, 14]: 42.1 µg/mL and 136 µM | solubility [6, 15]: 609 µg/mL and 2040 µM | solubility [6, 16]: 663 µg/mL and 2190 µM | solubility [6, 17]: 2190 µM | solubility [6, 20]: 609 ± 48.7 µg/mL | solubility [6, 18]: 2040 µM | PAMPA-BBB −logPe [8]: 3.84 | Papp at 4 h, 10 µM ([8]; PAMPA, pH 7.4): 144 ± 3.4 ×10⁻⁶ cm/s | logD7.4 [4]: 2.19 | logD ([4]; octanol/water, pH 7.4): < 3 | solubility [5]: > 100 µM | logS7.4 [5]: −3.87

Cn1ncc2cc(C(=O)Nc3ccc(F)c(F)c3)ccc21 [NTZ-1471]
Stability [1]: Stable | solubility [6, 11]: 10.4 µg/mL and 36.3 µM | solubility [6, 12]: 38.9 µM | solubility [6, 19]: 214 ± 33.3 µM | solubility [6, 13]: 214 µM | solubility [6, 14]: 61.6 µg/mL and 215 µM | solubility [6, 15]: 610 µg/mL and 2120 µM | solubility [6, 16]: 631 µg/mL and 2180 µM | solubility [6, 17]: 2190 µM | solubility [6, 20]: 610 ± 26.2 µg/mL | solubility [6, 18]: 2140 µM | PAMPA-BBB −logPe [8]: 3.83 | Papp at 4 h, 10 µM ([8]; PAMPA, pH 7.4): 148 ± 2.4 ×10⁻⁶ cm/s | CNS+/– Prediction [8]: CNS+ | solubility [5]: > 100 µM | logS7.4 [5]: −3.67

CC(=O)[C@H]1CC[C@H]2[C@@H]3CCC4=CC(=O)CC[C@]4(C)[C@H]3CC[C@]12C [Progesterone, reference compound]
Papp at 4 h ([8]; PAMPA, pH 7.4): 55.2 ± 0.02 ×10⁻⁶ cm/s | Experiment –logPe [8, 21]: 4.26 ± 0.00 | CNS+/– Prediction [8]: CNS+ | Reported –logPe [9]: 3.7 ± 0.25

CC(C)NCC(O)COc1cccc2ccccc12.Cl (stereo not shown) [Propranolol HCl, reference compound]
Experiment Pe [8, 21]: 98.7 ± 9.96 10-6 cm/s | Experiment –logPe [8, 21]: 4.01 ± 0.04 | Reported –logPe [9]: 4.1 ± 0.25 | CNS+/– Prediction [10]: CNS+

C[C@H](NCc1ccc(OCc2cccc(F)c2)cc1)C(N)=O [Safinamide, reference compound]
mode of interaction with hMAO-B (reversible or irreversible) [3]: reversible

Cn1c(=O)c2[nH]cnc2n(C)c1=O [Theophylline]
Reported –logPe [9]: > 6.0 ± 0.25
